* marks the point of attachment. Octanoyl = CCCCCCCC(=O)*
Tests used:
[1] = tested on: outer membrane of E. coli NDM-1; assay: Enzyme assay, outer membrane leakage (β-lactamase release, CENTA); type: cell-based; settings: peptide 0.63 or 1.30 uM, 37° C., 1 h; 200 μM CENTA
Protocol: (§1) It was observed, through an enzyme assay, whether the sensitizing peptide destroyed the outer and inner membranes of Gram-negative bacteria. In the presence of the sensitizing peptide, it was observed whether in a case where 1.5 mM ONPG was used together therewith, β-galactosidase was released from E. coli ATCC 25922 for the inner membrane, and whether in a case where 200 μM CENTA was used together therewith, β-lactamase was released from E. coli NDM-1 for the outer membrane.
Specifically, to determine leakage of the outer membrane, activity of the β-lactamase released from the outer membrane was evaluated. New Delhi metallo-β-lactamase-1 (NDm-1)-producing E. coli cells were washed three times with DPBS and suspended in the same buffer. The cells were diluted to an OD600 of 0.2 and treated with the peptide at a concentration of 0.63 or 1.30 uM at 37° C. for 1 h. After centrifugation, the supernatant was incubated with 200 μM CENTATM β-lactamase substrate at 37° C. for 1 hour. An optical density was obtained by measuring absorbance of a product of enzyme reaction at 405 nm using a microplate reader (Molecular Devices Co., Menlo Park, Calif.).
The results are illustrated in FIGS. 12A and 12B. The y-axis is absorbance measured at 405 nm, and higher absorbance is observed as a higher amount of β-lactamase is released due to destruction of the membrane.

E. coli ATCC 25922 = assay: MIC assay, sensitizing effect of peptide on antibacterial agents; type: cell-based
Protocol: (§2) All MIC assay experiments were performed using the Clinical and Laboratory Standards Institute (CLSI) guidelines (Clinical & Laboratory Standards Institute: CLSI Guidelines, 2017). Bacterial cells cultured overnight were diluted to 0.05 McFarland standard using McFarland (KIT […] PLUS INSTRUMENT, Biomerieux) in Muller Hinton II Broth (cation-adjusted) (Difco). The cells were inoculated at 1.5×10^5 CFU per 200 μL solution of each well in a 96-well plate. The peptide and the antibiotic were prepared using 2-fold serially diluted concentrations. […] Incubation was performed at 37° C. for 18 hours, and then absorbance was measured at 600 nm using an EPOCH2 microplate reader (BioTek, Winooski, USA) to calculate a MIC value. The MIC value was defined as a concentration of the antibiotic or peptide at which bacterial growth was inhibited to a level of lower than 10% growth of the positive control. Fold reduction was calculated using the following expression.
Fold reduction=MIC of antibiotic alone/MIC of antibiotic in presence of sensitizing peptide
Using the same MIC assay method as in Example 1, sensitizing effects of the peptide L9P (CMP1107, 1 ug/ml), which is known as a conventional sensitive AMP, and CMP1401 (1 ug/ml) were compared on existing antibacterial agents against E. coli ATCC 25922 (FIG. 5A).
In addition, MIC screening was used to compare sensitizing effects of the competitive drug SPR741 and the peptide CMP1401 or CMP1501 on the existing antibacterial agents against E. coli ATCC 25922 (FIGS. 5B and 5C). SPR741, which is a previously known polymyxin B (PMB) analog, is a sensitive AMP, and is a drug that has been identified through preclinical experiments to be effective against Gram-negative bacteria in a case of being used together with existing Gram-positive antibiotics.
(§3) ATCC 25922, A.b. ATCC 17978, K.p. ATCC 700603, and P.a. ATCC 27853, or CRE (E.c. NDM-1, K.p. NDM-1, or K.p. KPC) (FIGS. 9 and 10).

A. baumannii 801 = assay: Neutropenic mouse pneumonia model, number of colonies in lungs; type: in vivo
Protocol: To induce neutropenia in 6-week-old female ICR (CD-1) mice weighing 23 g to 27 g (Orient Bio, Seongnam, Korea), the mice were treated (subcutaneously injected) with 150 mg/kg and 100 mg/kg of cyclophosphamide (CP), respectively, 4 days and 1 day before pneumonia infection. For a mouse model for survival analysis, the mice were infected intranasally with 1×10^8 CFU A. baumannii 801; and for a mouse model for colony number counting, the mice were infected intranasally with 1×10^6 CFU A. baumannii 801.
In addition to the survival rate in the neutropenic mouse pneumoniae mouse model, the number of colonies of A. baumannii 801 was measured in the mouse lungs. The mice were euthanized and lungs were harvested in sterile saline. The lungs were homogenized and serially diluted in sterile saline. The homogenized lungs were applied to tryptic soy agar plates, incubated at 37° C. overnight, and the number of colonies was counted. […] Six mice were used per each group.

A. baumannii ATCC 17978 = assay: Neutropenic mouse thigh infection model; type: in vivo
Protocol: To induce neutropenia in 6-week-old female ICR (CD-1) mice weighing 23 g to 27 g (Orient Bio, Seongnam, Korea), the mice were treated (subcutaneously injected) with 150 mg/kg and 100 mg/kg of cyclophosphamide (CP), respectively, 5 days and 2 days before thigh infection. A. baumannii ATCC 17978 was harvested, washed, and suspended in sterile saline. The mice were anesthetized and infected with 1×10^5 CFU A. baumannii ATCC 17978 in the right and left thighs. […] The sensitizing peptide CMP1401 was administered by intraperitoneal injection 1, 3, 5, and 7 hours after infection. The mice were euthanized 9 hours after bacterial injection. Both thighs were harvested and suspended in sterile saline. The thighs were homogenized and serially diluted in sterile saline. The homogenized thighs were applied to tryptic soy agar plates, incubated overnight at 37° C., and the number of colonies was counted.

[2] = tested on: inner membrane of E. coli ATCC 25922; assay: Enzyme assay, inner membrane leakage (β-galactosidase release, ONPG); type: cell-based; settings: 1.5 mM ONPG
Protocol: as §1
To determine leakage of the inner membrane, release of the cytoplasmic enzyme β-galactosidase was evaluated. The bacteria were diluted to OD600=1 and 1.5 mM ONPG (O-nitrophenyl-β-D-galactopyranoside) was added. Absorbance of a product of enzyme reaction was measured at 420 nm. The other procedures were carried out in the same manner as in the experiment for outer membrane destruction.

K.p. ATCC 700603 = assay: MIC assay, sensitizing effect of peptide on rifampicin; type: cell-based, Klebsiella pneumoniae; settings: FIG. 9C, peptide 4 ug/ml
Protocol: as §2, §3

OctA-KKALKLAKKPLKLLK-NH2 (Octanoyl-KKALKLAKKPLKLLK-NH2) [CMP1401]
destruction of outer membrane (β-lactamase release) [1]: did not destroy these membranes | Decreased MIC value of rifampicin at peptide concentration of 4 ug/ml (E. coli ATCC 25922; FIG. 9A, E.c. ATCC 25922, peptide 4 ug/ml): 2 ng/mL | Decreased MIC value of colisitin at peptide concentration of 4 ug/ml (E. coli ATCC 25922; FIG. 10A, E.c. ATCC 25922, peptide 4 ug/ml): 7.8 ng/mL | sensitizing effect on existing antibacterial agents compared with SPR741 (E. coli ATCC 25922; FIGS. 5B and 5C): almost the same or much better sensitizing effect | sensitizing effect compared with SPR741 at half its concentration (E. coli ATCC 25922; peptide concentration decreased by half as compared with SPR741, FIG. 5C): equal or superior effect | sensitizing effect on existing antibacterial agents compared with L9P (E. coli ATCC 25922; peptides 1 ug/ml, FIG. 5A): very good sensitizing effect | number of colonies fewer than rifampicin alone group (A. baumannii 801; 2.5 mg/kg rifampicin + 25 mg/kg CMP1401 vs 2.5 mg/kg rifampicin alone): about 12 times | number of colonies fewer than untreated group (control) (A. baumannii 801; rifampicin and CMP1401 co-administered vs untreated): about 60 times | number of colonies fewer than rifampicin and SPR741 group (A. baumannii 801; rifampicin and CMP1401 vs rifampicin and SPR741): about 30 times | decrease in number of colonies compared with rifampicin alone (A. baumannii ATCC 17978; CMP1401 100 mg/kg in the presence of 20 mg/kg of rifampicin): 14 fold | number of colonies, peptide administered alone (A. baumannii ATCC 17978; CMP1401 alone at 50 mg/kg): No changes were observed in the number of colonies | therapeutic efficacy of combination therapy with rifampicin (A. baumannii ATCC 17978; rifampicin and CMP1401): excellent therapeutic efficacy | destruction of inner membrane (β-galactosidase release) [2]: did not destroy these membranes | Decreased MIC value of rifampicin at peptide concentration of 4 ug/ml (K.p. ATCC 700603): 7.8 ng/mL

Source: patent US20230181678A1, “NOVEL ANTIBACTERIAL PEPTIDE OR PEPTIDE ANALOG AND USE THEREOF” (CAMP THERAPEUTICS INC., priority 2020, published 2023)
